# Laboratory results taken from publication PMC3750730 (Neuroscience letters, 2013).
# Columns and labels:
# [1] = Rat weight during seven days of daily treatment; type: in vivo, rats; conditions: Cpd-60 22.5 mg/kg, CI-994 5 mg/kg, vs vehicle-treated controls
# [2] = target: class II HDAC enzyme subtypes; assay: In vitro HDAC deacetylase activity assay; type: biochemical; conditions: read-out: IC50 class II HDAC enzyme subtypes; recombinant human HDACs
# [3] = tested on: rats; conditions: rats treated with fluoxetine; cited from earlier work
# [4] = tested on: brain glucose; conditions: rats treated with fluoxetine; cited from earlier work
effect on rat weight over seven days [1],IC50 [2],Structure (SMILES),behavioral effects in the forced swim test [3],brain glucose changes [4]
did not significantly affect rat weight,> 33 µM,CC(=O)Nc1ccc(C(=O)Nc2ccccc2N)cc1 [CI-994],,
,,CNCCC(Oc1ccc(C(F)(F)F)cc1)c1ccccc1 (stereo not shown) [fluoxetine],antidepressant behavioral effects,4–14%
